Experimental data: patent publication US20130261045A1, “GREEN TEA POLYPHENOL ALPHA SECRETASE ENHANCERS AND METHODS OF USE” (UNIVERSITY OF SOUTH FLORIDA, priority 2005, published 2013)

Tested on: APP α-secretase cleavage
Assay: Western blot of APP CTFs and sAPP-α in SweAPP N2a cells (Examples 6-7, with or without siRNA knock-down)
Assay type: cell-based, murine
Conditions: various doses of EGCG, 8 h
From the text: FIGS. 8A-8H show EGCG-induced ADAM10 activation correlates with APP α-secretase cleavage in vitro. […] Data were represented as % change relative to control (medium from cultured SweAPP N2a cells or primary neuronal cells without any treatment).
FIGS. 10A-10C show ADAM10 is required for EGCG-induced APP α-secretase cleavage. […] In FIG. 10A, cell lysates were subjected to WB for APP CTFs and ADAM10 cleavage analyses. […] In FIG. 10B, cell culture media were subjected to WB for sAPP-α secretion. […] In FIG. 10C, cell culture media were subjected to Aβ ELISA. Data are represented as % change relative to control (medium from cultured SweAPP N2a cells without any treatment). […] Data are representative of three independent experiments.
Cultured cells were lysed in ice-cold lysis buffer described above, and an aliquot corresponding to 50 μg of total protein was electrophoretically separated using 16.5% Tris-tricine gels. […] Densitometric analysis was done using the Fluor-S MultiImager™ with Quantity One™ software (Bio-Rad). […]
SweAPP N2a cells were transfected with siRNA pre-designed to knock-down murine ADAM9, 10, or 17 mRNA (Dharmacon Inc. Lafayette, Colo.). […] Transfection efficiency was determined to be greater than 80% (data not shown) using no-RISC siGLOW (fluorescently labeled non-functional siRNA; Dharmacon). […] The cells were evaluated by Western blot analysis for expression of ADAM9, 10 or 17. […]

O=C(O[C@@H]1Cc2c(O)cc(O)cc2O[C@@H]1c1cc(O)c(O)c(O)c1)c1cc(O)c(O)c(O)c1 [EGCG, (−)-epigallocatechin-3-gallate]
sAPP-α: dose-dependent increases
α-CTF: dose-dependent increases
